What is called Dmax is the largest share of the target that was removed.

In this experiment the target is KRas (Homo sapiens, UniProt P01116, G12C). The experiment in a line: KRas degradation in NCI-H2030 cells by Western blot, normalized to GAPDH (data of Table 14). It counts as cell-based. Further details: host or cells: NCI-H2030. The conditions noted are these: for Dmax: NCI-H2030. The gist of the method: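 Cells serum-starved 24 h, then treated at 0.3, 1 and 3 μM in 0.1% DMSO, 24 h for VHL-based compounds and 72 h for others. Lysates (10 μg protein) immunoblotted; KRas normalized to GAPDH, degradation visually estimated below 25% or quantified versus DMSO lane, giving DC50 and DMax.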
A general note: In western blotting, separated proteins are transferred to a membrane and probed.

Each structure is given as a SMILES string.

In turn, `CN(C)C(=O)CCNc1nc(N2CCN(C(=O)/C=C/CCOCCOCCOCCOc3ccc4c(c3)C(=O)N(C3CCC(=O)NC3=O)C4=O)CC2)c2cc(Cl)c(-c3cc(O)cc4ccccc34)c(F)c2n1` (stereo not shown) [compound 174, (E)-3-((6-chloro-4-(4-(5-(2-(2-(2-((2-(2,6-dioxopiperidin-3-yl)-1,3-dioxoisoindolin-5-yl)oxy)ethoxy)ethoxy)ethoxy)pent-2-enoyl)piperazin-1-yl)-8-fluoro-7-(3-hydroxynaphthalen-1-yl)quinazolin-2-yl)amino)-N,N-dimethylpropanamide] gave a Dmax not above 35%. Also, where the note is “H2030, 0.3 μM”, the “Percent Degradation at Indicated Concentration (μM)” value is “C (Percent Degradation: C ≤ 35)”. Further, for the setting “H2030, 1 μM”, the “Percent Degradation at Indicated Concentration (μM)” value is on record as “C (Percent Degradation: C ≤ 35)”. Moreover, the “Percent Degradation at Indicated Concentration (μM)” value (H2030, 3 μM) is “C (Percent Degradation: C ≤ 35)”.

Regarding `C=CC(=O)N1CCN(c2nc(NCCC(=O)N(C)CCOCCOCCOCCOCCOCC(=O)N[C@H](C(=O)N3C[C@H](O)C[C@H]3C(=O)N[C@@H](C)c3ccc(-c4scnc4C)cc3)C(C)(C)C)nc3c(F)c(-c4c(O)cccc4F)c(Cl)cc23)CC1` (atropisomer, axis not shown) [compound 213, (2S,4R)-1-((S)-24-(((S)-4-(4-acryloylpiperazin-1-yl)-6-chloro-8-fluoro-7-(2-fluoro-6-hydroxyphenyl)quinazolin-2-yl)amino)-2-(tert-butyl)-21-methyl-4,22-dioxo-6,9,12,15,18-pentaoxa-3,21-diazatetracosanoyl)-4-hydroxy-N-((S)-1-(4-(4-methylthiazol-5-yl)phenyl)ethyl)pyrrolidine-2-carboxamide], the “Percent Degradation at Indicated Concentration (μM)” value (H2030, 3 μM) is on record as “C (Percent Degradation: C ≤ 35)”.

On to `C=CC(=O)N1CCN(c2nc(NCCC(=O)N(C)CCOCCOCCOCCOc3cc(-c4scnc4C)ccc3CNC(=O)[C@@H]3C[C@@H](O)CN3C(=O)[C@H](c3cc(C)no3)C(C)C)nc3c(F)c(-c4c(O)cccc4F)c(Cl)cc23)CC1` (atropisomer, axis not shown) [compound 131, (2S,4R)-N-(2-((15-(((S)-4-(4-acryloylpiperazin-1-yl)-6-chloro-8-fluoro-7-(2-fluoro-6-hydroxyphenyl)quinazolin-2-yl)amino)-12-methyl-13-oxo-3,6,9-trioxa-12-azapentadecyl)oxy)-4-(4-methylthiazol-5-yl)benzyl)-4-hydroxy-1-((S)-3-methyl-2-(3-methylisoxazol-5-yl)butanoyl)pyrrolidine-2-carboxamide], for which the Dmax is not above 35%. Also, the “Percent Degradation at Indicated Concentration (μM)” value (H2030, 0.3 μM) is “C (Percent Degradation: C ≤ 35)”. Also, the “Percent Degradation at Indicated Concentration (μM)” value (H2030, 1 μM) was “C (Percent Degradation: C ≤ 35)”. Further, where the note is “H2030, 3 μM”, the “Percent Degradation at Indicated Concentration (μM)” value was “C (Percent Degradation: C ≤ 35)”.

For the molecule `CCC(=O)N1CCN(c2nc(NCCC(=O)N(C)CCOCCOCCOCCOCCOCC(=O)N[C@H](C(=O)N3C[C@H](O)C[C@H]3C(=O)N[C@@H](C)c3ccc(-c4scnc4C)cc3)C(C)(C)C)nc3c(F)c(-c4cc(O)cc5ccccc45)c(Cl)cc23)CC1` [compound 190, (2S,4R)-1-((2S)-2-(tert-butyl)-24-((6-chloro-8-fluoro-7-(3-hydroxynaphthalen-1-yl)-4-(4-propionylpiperazin-1-yl)quinazolin-2-yl)amino)-21-methyl-4,22-dioxo-6,9,12,15,18-pentaoxa-3,21-diazatetracosanoyl)-4-hydroxy-N-((S)-1-(4-(4-methylthiazol-5-yl)phenyl)ethyl)pyrrolidine-2-carboxamide], for the setting “H2030 cells, 0.3 μM”, the “Percent Degradation at Indicated Concentration (μM): 0.3” value is “C (C ≤ 35)”. In addition, under “H2030 cells, 1 μM”, the “Percent Degradation at Indicated Concentration (μM): 1” value was “C (C ≤ 35)”. The “Percent Degradation at Indicated Concentration (μM): 3” value (H2030 cells, 3 μM) was “C (C ≤ 35)”. Moreover, the Dmax (H2030 cells) was not above 35%.

Regarding `CN(CCOCCOCCOc1ccc2c(c1)C(=O)N(C1CCC(=O)NC1=O)C2=O)C(=O)CCNc1nc(N2CCN(C(=O)C(O)O)CC2)c2cc(Cl)c(-c3c(O)cccc3F)c(F)c2n1` [compound 152, 3-(((R)-6-chloro-4-(4-(2,2-dihydroxyacetyl)piperazin-1-yl)-8-fluoro-7-(2-fluoro-6-hydroxyphenyl)quinazolin-2-yl)amino)-N-(2-(2-(2-((2-(2,6-dioxopiperidin-3-yl)-1,3-dioxoisoindolin-5-yl)oxy)ethoxy)ethoxy)ethyl)-N-methylpropanamide], the “Percent Degradation at Indicated Concentration (μM)” value (H2030 cells, 0.3 μM) is listed as “C (Percent Degradation: C ≤ 35)”; the “Percent Degradation at Indicated Concentration (μM)” value (H2030 cells, 1 μM) is “C (Percent Degradation: C ≤ 35)”; the “Percent Degradation at Indicated Concentration (μM)” value (H2030 cells, 3 μM) is reported as “C (Percent Degradation: C ≤ 35)”.

Take `C=CC(=O)N1CCN(c2nc(NCCC(=O)N(C)CCOCCOCCOCCOc3ccc4c(c3)C(=O)N(C3CCC(=O)NC3=O)C4=O)nc3c(F)c(-c4cc(O)cc5ccccc45)c(Cl)cc23)CC1` (stereo not shown) [compound 62, 3-((4-(4-acryloylpiperazin-1-yl)-6-chloro-8-fluoro-7-(3-hydroxynaphthalen-1-yl)quinazolin-2-yl)amino)-N-(2-(2-(2-(2-((2-(2,6-dioxopiperidin-3-yl)-1,3-dioxoisoindolin-5-yl)oxy)ethoxy)ethoxy)ethoxy)ethyl)-N-methylpropanamide]: the “Percent Degradation at Indicated Concentration (μM): 0.3” value (H2030 cells, 0.3 μM) is reported as “C (C ≤ 35)”. In addition, the “Percent Degradation at Indicated Concentration (μM): 1” value (H2030 cells, 1 μM) is listed as “C (C ≤ 35)”. Moreover, the “Percent Degradation at Indicated Concentration (μM): 3” value (H2030 cells, 3 μM) is listed as “C (C ≤ 35)”. This molecule registered a Dmax (H2030 cells) not above 35%.

Turning to `C=CC(=O)N1CCN(c2nc(NCCC(=O)N(C)CCOCCOCCOCCOCCNc3cccc4c3C(=O)N(C3CCC(=O)NC3=O)C4=O)nc3c(F)c(-c4c(O)cccc4F)c(Cl)cc23)CC1` [compound 115, 3-(((S)-4-(4-acryloylpiperazin-1-yl)-6-chloro-8-fluoro-7-(2-fluoro-6-hydroxyphenyl)quinazolin-2-yl)amino)-N-(14-((2-(2,6-dioxopiperidin-3-yl)-1,3-dioxoisoindolin-4-yl)amino)-3,6,9,12-tetraoxatetradecyl)-N-methylpropanamide], the “Percent Degradation at Indicated Concentration (μM)” value (H2030, 3 μM) is reported as “C (Percent Degradation: C ≤ 35)”.

The molecule `C=CC(=O)N1CCN(c2nc(NCCC(=O)N(C)CCOCCOCCOCCOCCOCC(=O)N[C@H](C(=O)N3C[C@H](O)C[C@H]3C(=O)N[C@@H](C)c3ccc(-c4scnc4C)cc3)C(C)(C)C)nc3c(F)c(-c4c(O)cccc4F)c(Cl)cc23)CC1` [compound 214, (2S,4R)-1-((S)-24-(((R)-4-(4-acryloylpiperazin-1-yl)-6-chloro-8-fluoro-7-(2-fluoro-6-hydroxyphenyl)quinazolin-2-yl)amino)-2-(tert-butyl)-21-methyl-4,22-dioxo-6,9,12,15,18-pentaoxa-3,21-diazatetracosanoyl)-4-hydroxy-N-((S)-1-(4-(4-methylthiazol-5-yl)phenyl)ethyl)pyrrolidine-2-carboxamide] had a Dmax not above 35%. In addition, under “H2030, 0.3 μM”, the “Percent Degradation at Indicated Concentration (μM)” value is given as “C (Percent Degradation: C ≤ 35)”. Further, the “Percent Degradation at Indicated Concentration (μM)” value (H2030, 1 μM) was “C (Percent Degradation: C ≤ 35)”. Also, the “Percent Degradation at Indicated Concentration (μM)” value (H2030, 3 μM) is listed as “C (Percent Degradation: C ≤ 35)”.

`Cc1ncsc1-c1ccc([C@H](C)NC(=O)[C@@H]2C[C@@H](O)CN2C(=O)[C@@H](NC(=O)COCCOCCOCCOCC/C=C/C(=O)N2CCN(c3nc(NCCC(=O)N(C)C)nc4c(F)c(-c5cc(O)cc6ccccc56)c(Cl)cc34)CC2)C(C)(C)C)cc1` [compound 366] yielded a Dmax not above 35%. The “Percent Degradation at Indicated Concentration (μM)” value (H2030, 0.3 μM) is listed as “C (Percent Degradation: C ≤ 35)”. The “Percent Degradation at Indicated Concentration (μM)” value (H2030, 1 μM) is “C (Percent Degradation: C ≤ 35)”. The “Percent Degradation at Indicated Concentration (μM)” value (H2030, 3 μM) is listed as “C (Percent Degradation: C ≤ 35)”.

For `CN[C@@H](C)C(=O)N[C@H](C(=O)N1CCC[C@H]1c1nc(-c2ccc(OCCOCCOCCOCCN(C)C(=O)CCNc3nc(N4CCN(C(C)=O)CC4)c4cc(Cl)c(-c5cc(O)cc6ccccc56)c(F)c4n3)c3ccccc23)cs1)C1CCCCC1` [compound 268, 3-((4-(4-acetylpiperazin-1-yl)-6-chloro-8-fluoro-7-(3-hydroxynaphthalen-1-yl)quinazolin-2-yl)amino)-N-(2-(2-(2-(2-((4-(2-((S)-1-((S)-2-cyclohexyl-2-((S)-2-(methylamino)propan-amido)acetyl)pyrrolidin-2-yl)thiazol-4-yl)naphthalen-1-yl)oxy)ethoxy)ethoxy)eth-oxy)ethyl)-N-methylpropanamide], the greatest degradation seen (Dmax) was not above 35%. Besides, the “Percent Degradation at Indicated Concentration (μM)” value (H2030, 0.3 μM) is given as “C (Percent Degradation: C ≤ 35)”. Further, under “H2030, 1 μM”, the “Percent Degradation at Indicated Concentration (μM)” value is listed as “C (Percent Degradation: C ≤ 35)”. Besides, the “Percent Degradation at Indicated Concentration (μM)” value (H2030, 3 μM) is reported as “C (Percent Degradation: C ≤ 35)”.

`C=CC(=O)N1CCN(c2nc(NCCC(=O)N(C)CCOCCOCCOCC(=O)N[C@H](C(=O)N3C[C@H](O)C[C@H]3C(=O)N[C@@H](C)c3ccc(-c4scnc4C)cc3)C(C)(C)C)nc3c(F)c(-c4c(O)cccc4F)c(Cl)cc23)CC1` (atropisomer, axis not shown) [compound 210, (2S,4R)-1-((S)-18-((4-(4-acryloylpiperazin-1-yl)-6-chloro-8-fluoro-7-((R)-2-fluoro-6-hydroxyphenyl)quinazolin-2-yl)amino)-2-(tert-butyl)-15-methyl-4,16-dioxo-6,9,12-trioxa-3,15-diazaoctadecanoyl)-4-hydroxy-N-((S)-1-(4-(4-methylthiazol-5-yl)phenyl)ethyl)pyrrolidine-2-carboxamide] had a Dmax not above 35%. Further, the “Percent Degradation at Indicated Concentration (μM)” value (H2030, 0.3 μM) is “C (Percent Degradation: C ≤ 35)”. For the same molecule, for the setting “H2030, 1 μM”, the “Percent Degradation at Indicated Concentration (μM)” value was “C (Percent Degradation: C ≤ 35)”. In addition, the “Percent Degradation at Indicated Concentration (μM)” value (H2030, 3 μM) is listed as “C (Percent Degradation: C ≤ 35)”.
